Where two headings read alike, the source gives them in different places. Where only a bound is given, the exact number is not on record here.

For orientation: IC50 means the concentration that gives 50% inhibition. The Ki is the dissociation constant of the complex between target and ligand, obtained from inhibition or displacement.

In test [1] the target is T1, rat GPR14 (U-II receptor) (Rattus norvegicus, UniProt P49684).
T1 construct: expressed in transfected cells
T1 sequence (P49684 1-386): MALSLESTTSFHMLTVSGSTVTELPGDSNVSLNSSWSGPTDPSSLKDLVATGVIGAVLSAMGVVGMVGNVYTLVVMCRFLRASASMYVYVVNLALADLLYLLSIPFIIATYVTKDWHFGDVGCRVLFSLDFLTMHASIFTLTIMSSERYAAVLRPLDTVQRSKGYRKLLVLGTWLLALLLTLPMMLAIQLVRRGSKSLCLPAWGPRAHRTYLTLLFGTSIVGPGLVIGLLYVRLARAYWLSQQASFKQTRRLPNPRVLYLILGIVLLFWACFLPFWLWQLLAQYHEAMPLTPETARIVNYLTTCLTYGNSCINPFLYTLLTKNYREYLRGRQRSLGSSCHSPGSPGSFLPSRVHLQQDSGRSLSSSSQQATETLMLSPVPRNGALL
The experiment in a line: Rat UII Calcium Mobilization FLIPR Assay. The format is cell-based. The following applies: CHO cells transfected with rat GPR14; antagonist activity after 5 min incubation vs agonist (Ac)-CFWK(2-NaI)C-NH2 at 1 nM. The text has this:
To derive these cells, the complete coding sequence of rat U-II (Genbank Accession No. U32673) was amplified by nested PCR from rat heart marathon-Ready cDNA. […] The PCR products were cloned into pcDNA3 (Invitrogen) digested with EcoR I and Xba I. Clones containing rat U-II receptor were verified by complete sequencing of the U-II receptor insert to ensure a lack of PCR-introduced errors. The constructed vector was transfected into CHO cells by using lipofectamine (GIBCO BRL). CHO cells with high expression of rat U-II receptor were selected and established as stable cell lines by using G418. CHO cells were seeded at 25,000 cells per well into 96-well, black-wall, clear-bottom microtiter plates 24 h before assay. Cells in culture media (DMEM/F12 containing 15 mM HEPES, L-glutamine, pyridoxine hydrochloride; 10% fetal bovine serum; 1 mg/mL G418 sulfate; antibiotic-antimycotic; pH 7.4) were loaded with proprietary dye, from the FLIPR Calcium Assay Kit (Molecular Devices), prepared in assay buffer (Hanks Balanced Salts Solution, 20 mM HEPES, 0.1% BSA, 2.5 mM probenecid, pH 7.4), and incubated for 1 h at 37° C. Calcium mobilization determinations were performed at room temperature (23° C.).

In test [2] the target is T2, Human UII (U-II receptor) in 6D9 human rhabdomyosarcoma cells (Homo sapiens, UniProt Q9UKP6).
T2 construct: 6D9: isolated by dilution subcloning of RMS13 cells, ATCC® Number: CRL-2061; host or cells: 6D9 human rhabdomyosarcoma cells (subclone of RMS13)
T2 sequence (Q9UKP6 1-389): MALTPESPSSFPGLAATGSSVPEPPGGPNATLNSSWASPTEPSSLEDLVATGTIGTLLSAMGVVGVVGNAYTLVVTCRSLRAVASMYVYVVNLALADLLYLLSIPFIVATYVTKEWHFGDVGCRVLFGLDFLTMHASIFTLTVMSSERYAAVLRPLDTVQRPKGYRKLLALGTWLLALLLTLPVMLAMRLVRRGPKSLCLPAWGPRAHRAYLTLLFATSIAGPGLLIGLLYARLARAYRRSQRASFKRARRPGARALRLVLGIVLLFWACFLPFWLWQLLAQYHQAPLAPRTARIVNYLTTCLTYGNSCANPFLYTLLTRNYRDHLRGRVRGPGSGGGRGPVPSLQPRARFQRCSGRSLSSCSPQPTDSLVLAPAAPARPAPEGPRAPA
The test can be described thus: Human UII Calcium Mobilization Assay. In kind it is cell-based. As to conditions: 6D9 human rhabdomyosarcoma cells, FLIPR TETRA, average; read-out: Human UII Ca+ Mobilization Average IC50. Here is the method:
25 μL of dye solution was added to the wells such that the final liquid volume before agonist/antagonist treatment was 50 μL for all assays. The cell plates were incubated at 37° C. for 45 minutes and the fluorescence intensity was measured on a Fluorometric Imaging Plate Reader (FLIPR^TETRA, Molecular Devices, Sunnyvale, Calif.).
Antagonist and agonist U-II were added at room temperature on the FLIPR^TETRA, and the fluorescence intensity before and after addition was measured over a period of 4 minutes. The dye incubation time and temperature as well as instrument setting was adjusted so the fluorescence intensity could be compared between plates on the same day. EC50 and IC50 were analyzed using GraphPad Prism 4 software (GraphPad Software Inc., San Diego, Calif.).
For assays, U-II agonist, U-II antagonist and urantide were diluted with HBSS/HEPES containing 0.01% FBS.
Test compounds were dissolved in DMSO at 10 mM concentration. The serial dilutions were carried out in HBSS/HEPES. The highest final DMSO concentration was at 0.1%.
On the technique in general: Calcium flux is commonly read through the fluorescence of an indicator in the cells.

Test [3] addresses T3, UT receptors in HSMM (Human Skeletal Muscle Myoblasts) (Homo sapiens, UniProt Q9UKP6).
T3 sequence (Q9UKP6 1-389): T2 sequence (Q9UKP6 1-389)
The test can be described thus: Human Radioligand Binding Assay ((^125I)-U-II binding to intact HSMM).

The mark [4] stands for this setting: read-out: Human UII Average Binding Ki, intact HSMM, 0.150 nM (^125I)-U-II, 3 h, 25° C.

Consider `COc1ccc([C@@H](CCCNS(=O)(=O)c2cccs2)N2Cc3c(cccc3N3CCN(C(C)C)CC3)C2=O)cc1OC` [Cpd 65, thiophene-2-sulfonic acid {(4R)-4-(3,4-dimethoxy-phenyl)-4-[4-(4-isopropyl-piperazin-1-yl)-1-oxo-1,3-dihydro-isoindol-2-yl]-butyl}-amide], for which the figures for the IC50 in test [1] and in test [2] were 3 nM and 53 nM, respectively. For the same molecule, the Ki in test [3] (setting [4]) is 4 nM.

In the case of `CCN1CCN(c2cccc3c2CN(C(c2ccc(OC)c(OC)c2)C2CCN(S(=O)(=O)c4cn(C)c(C)n4)CC2)C3=O)CC1` (stereo not drawn) [Cpd 44, 2-{(3,4-dimethoxy-phenyl)-[1-(1,2-dimethyl-1H-imidazole-4-sulfonyl)-piperidin-4-yl]-methyl}-4-(4-ethyl-piperazin-1-yl)-2,3-dihydro-isoindol-1-one], the values for the IC50 in test [1] and in test [2] were 7330 nM and 3060 nM, respectively. For the same molecule, the Ki in test [3] was over 300 nM.

For the molecule `CCN1CCN(c2cccc3c2CN(C(CC2CCN(S(=O)(=O)O)CC2)c2ccc(OC)c(OC)c2)C3=O)CC1` (stereo not drawn) [Cpd 17, 4-{2-(3,4-dimethoxy-phenyl)-2-[4-(4-ethyl-piperazin-1-yl)-1-oxo-1,3-dihydro-isoindol-2-yl]-ethyl}-piperidine-1-sulfonic acid], the IC50 in test [1] came out at 337 nM; in test [2] it was 662 nM. This molecule displayed a Ki in test [3] of 74 nM.

`COc1ccc([C@@H](CCCn2ccnc2)N2Cc3c(cccc3N3CCNCC3)C2=O)cc1OC` [Cpd 35, 2-[(1R)-1-(3,4-dimethoxy-phenyl)-4-imidazol-1-yl-butyl]-4-piperazin-1-yl-2,3-dihydro-isoindol-1-one]: the values for the concentration for half-maximal inhibition (IC50) in test [1] and in test [2] were 1900 nM and over 10000 nM, respectively. In test [3], the Ki was determined as 1100 nM.

As for `COc1ccc([C@@H](CCCSc2ccccc2)N2Cc3c(cccc3N3CCNCC3)C2=O)cc1OC` [Cpd 36, 2-[(1R)-1-(3,4-dimethoxy-phenyl)-4-phenylsulfanyl-butyl]-4-piperazin-1-yl-2,3-dihydro-isoindol-1-one], the IC50 in test [1] stood at 19 nM; in test [2], 1150 nM. The Ki in test [3] was found to be 122 nM.

On to `CCN1CCN(c2cccc3c2CN([C@H](CCCNCc2ccccc2)c2ccc(OC)c(OC)c2)C3=O)CC1` [Cpd 77, 2-[(1R)-4-benzylamino-1-(3,4-dimethoxy-phenyl)-butyl]-4-(4-ethyl-piperazin-1-yl)-2,3-dihydro-isoindol-1-one], for which the IC50 in test [1] was 5 nM; in test [2], 47 nM. In test [3], this molecule came in with a Ki of 26 nM.

`CCN1CCN(c2cccc3c2CN([C@H](CCCNC(=O)c2c(C)n[nH]c2C)c2ccc(OC)c(OC)c2)C3=O)CC1` [Cpd 60, 3,5-dimethyl-1H-pyrazole-4-carboxylic acid {(4R)-4-(3,4-dimethoxy-phenyl)-4-[4-(4-ethyl-piperazin-1-yl)-1-oxo-1,3-dihydro-isoindol-2-yl]-butyl}-amide]: the figures for the IC50 in test [1] and in test [2] were 16 nM and 130 nM, respectively. For the same molecule, the Ki in test [3] (setting [4]) came to 11 nM.

Take `CCN1CCN(c2cccc3c2CN([C@H](CCCn2cnnn2)c2ccc(OC)c(OC)c2)C3=O)CC1` [Cpd 14, 2-[(1R)-1-(3,4-dimethoxy-phenyl)-4-tetrazol-1-yl-butyl]-4-(4-ethyl-piperazin-1-yl)-2,3-dihydro-isoindol-1-one]: the IC50 is 31 nM in test [1] and 1390 nM in test [2]. Also, the affinity in test [3] corresponds to a Ki of 129 nM.

For the molecule `COc1ccc([C@@H](CCCNc2nccc(C(F)(F)F)n2)N2Cc3c(cccc3N3CCN(C4CC4)CC3)C2=O)cc1OC` [Cpd 4, 4-(4-cyclopropyl-piperazin-1-yl)-2-[(1R)-1-(3,4-dimethoxy-phenyl)-4-(4-trifluoromethyl-pyrimidin-2-ylamino)-butyl]-2,3-dihydro-isoindol-1-one], the IC50 in test [1] was determined as 1700 nM; in test [2], 7010 nM. This molecule also gave a Ki in test [3] of over 300 nM.

The values above are taken from patent US8008299B2, “Urotensin II receptor antagonists” (Janssen Pharmaceutica, N.V., priority 2007, dated 2011).
